Five molecules from patent publication US10532085B2, “Methods for increasing intracellular activity of Hsp70” (Orphazyme A/S, priority 2010, dated 2020) can be followed below.

The test system of one assay is U-2-OS cells. Briefly: Lysosomal integrity upon photo-oxidation (acridine orange and blue light). The assay is classed as cell-based, Human. As to conditions: recombinant proteins 300 nM, 24 h. The method, then:
FIG. 2: Lysosomal Hsp70 stabilizes lysosomal membranes. (a) Representative confocal images of U-2-OS cells incubated with 300 nM rHsp70-AF488 (green) for 24 h, fixed and stained for lysosomal integral membrane protein-1 (LIMP-1; red). For co-localization with other organelle markers see FIG. 3. (b) U-2-OS cells were incubated with 300 nM rHsp70-AF488 for 24 h before quantification of rHsp70-AF488 in membranes (memb.) and supernatant (sup.) obtained by repeated freeze/thaw cycles and centrifugation the light membrane fraction (LMF). […] (c) Representative still images of U-2-OS cells exposed to photo-oxidation (acridine orange and blue light). The loss of lysosomal integrity is visualized by the loss of red and increase in green staining. (d and e) U-2-OS cells were incubated with indicated recombinant proteins (300 nM) for 24 h, and analyzed for lysosomal integrity upon photo-oxidation. When indicated, cells were treated with indicated siRNAs for 48 h prior to the addition of recombinant proteins (e). The values represent means±SD (standard deviation) for three (d) or five (e) independent experiments. Representative immunoblots of indicated proteins from U-2-OS cells left untreated or treated with control or Hsp70 siRNAs are shown on the right. Scale bars: 20 μm (a and c).
WT- and Hsp70-MEFs were generated, immortalized and maintained as described in the art. Human NPDA fibroblasts (83/24) originate from a skin biopsy of a patient with hepatosplenomegaly. Recombinant proteins were generated using the pET-16b vector system and Ni^2+-affinity-purification (Novagen), and labeled with Alexa Fluor 488 according to manufacturers protocol (Molecular Probes). To analyze the lysosomal integrity, we developed a real time imaging method of cells stained with acridine orange, a metachromatic weak base that accumulates in the acidic compartment of the cells staining them red and sensitizing them to photo-oxidation. The photo-oxidation-induced loss of the lysosomal pH-gradient and leakage of acridine orange to the cytosol from individual lysosomes was quantified visually as “loss of red dots” in U2-O—S cells and as a decrease in red and an increase in green fluorescence by Zeiss LSM DUO Software in fibroblasts. The total and cytoplasmic (digitonin-extracted) cathepsin activities were measured in digitonin-treated samples using zFR-AFC (Enzyme System Products) probe as described in the art. The tryptophan fluorescence spectra and liposome 90° light scattering were analyzed in a HEPES buffer (20 mM HEPES, 0.1 mM EDTA, pH as indicated) essentially as described in the art. Surface plasmon resonance measurements were performed with immobilized LUVs using a BIAcore 2000 system as described in the art. Hsp70 siRNA (5′-[…]-3′) and a […] were transfected with Oligofectamine (Invitrogen). Immunodetection was performed with standard protocols. Apoptosis-like cell death and lysosomal membrane permeabilization were analyzed essentially as described in the art. ASM activity was analyzed by Amplex Red Sphingomyelinase Assay Kit (A12220) from Molecular Probes with modifications described in the art. Statistical analysis was performed using a two-tailed, paired Student's T-test and all groups of data were tested for the comparability of their variances using an F-test.
Sub-confluent cells incubated with 2 μg/ml acridine orange for 15 min at 37° C. were washed, irradiated and analyzed in Hanks balanced salt solution complemented with 3% fetal calf serum. Cells for single cell imaging were selected from 8 pre-defined areas of each well in transmitted light-mode after which the same cells were immediately visualized and exposed to blue light from USH102 100W mercury arc burner (Ushio electric) installed in a U-ULS100HG housing (Olympus) for 20 sec. Fluorescence microscopy was performed on Olympus IX-70 inverted microscope with a LCPlanF1 ×20 objective with NA=0.40. […]

Assay [1] relates to cisplatin-induced lysosomal cell death. The experiment in a line: Cisplatin-induced lysosomal cell death. The assay is classed as cell-based. An excerpt:
Thus, we investigated the interaction of Hsp70 with palmitoyl-oleoyl-phosphatidylcholine (POPC) large unilamellar vesicles (LUVs) containing various membrane-associated anionic lipids, i.e. palmitoyl-oleoyl-phosphatidylserine (POPS; primarily in plasma membrane), cardiolipin (primarily mitochondrial) and BMP (primarily in late endosomes/lysosomes). Taking into account the increasingly acidic milieu of the endo-lysosomal compartment upon maturation to lysosomes, we compared the protein-lipid interactions in neutral (pH 7.4) and acidic (pH 6.0) conditions. […]
(§1) In order to investigate which part of the Hsp70 protein is responsible for the BMP binding, we measured the fluorescence shift of the tryptophans upon docking of rHsp70 and its mutants into BMP-containing liposomes. […] Next, we substituted the two tryptophans in Hsp70 with phenylalanines (W90F and W580F) and studied which tryptophan is responsible for the fluorescence shift induced by lipid binding. […] A more quantitative BIAcore analysis of the BMP—rHsp70 interaction confirmed that Hsp70 interacted with BMP mainly through its ATPase domain. […]
Cell density was assessed by the 3-(4,5-dimethylthiazole-2-y)-2,5-[…] (MTT, SIGMA-Aldrich) reduction assay essentially as described in the art. […] For each experiment a minimum of eight randomly chosen areas were counted.

The nature of assay [2]: Surface plasmon resonance (BIAcore) BMP interaction. It is filed as binding. The conditions noted are these: acidic pH.
Description: Thus, we investigated the interaction of Hsp70 with palmitoyl-oleoyl-phosphatidylcholine (POPC) large unilamellar vesicles (LUVs) containing various membrane-associated anionic lipids, i.e. palmitoyl-oleoyl-phosphatidylserine (POPS; primarily in plasma membrane), cardiolipin (primarily mitochondrial) and BMP (primarily in late endosomes/lysosomes). Taking into account the increasingly acidic milieu of the endo-lysosomal compartment upon maturation to lysosomes, we compared the protein-lipid interactions in neutral (pH 7.4) and acidic (pH 6.0) conditions. […] As reported earlier for POPS, all negatively charged lipids enhanced the binding of rHsp70 to the liposomes at neutral pH approximately 4-fold irrespective of the charge density on the liposome surface (ranging from −1 to −2).
as §1
(Surface plasmon resonance follows binding to a sensor surface in real time, without labels.)

Assay [3] is described as follows: Tryptophan fluorescence shift upon docking into BMP-containing liposomes. The assay is classed as binding. An excerpt: In order to investigate which part of the Hsp70 protein is responsible for the BMP binding, we measured the fluorescence shift of the tryptophans upon docking of rHsp70 and its mutants into BMP-containing liposomes. […] Next, we substituted the two tryptophans in Hsp70 with phenylalanines (W90F and W580F) and studied which tryptophan is responsible for the fluorescence shift induced by lipid binding. […] A more quantitative BIAcore analysis of the BMP—rHsp70 interaction confirmed that Hsp70 interacted with BMP mainly through its ATPase domain. […] Thus, the rHsp70-W90F mutant provided us with an invaluable tool to further test whether the direct interaction between Hsp70 and BMP endows Hsp70 with its lysosome protective attributes. […] Importantly, mutant Hsp70 proteins were endocytosed essentially as effectively as the wild type Hsp70.
The tryptophan fluorescence spectra (RFI) and liposome 90° light scattering (RSI) were analyzed in a HEPES buffer (20 mM HEPES, 0.1 mM EDTA, pH 7.4 or 6.0 as indicated) employing LUVs consisting of indicated lipids essentially as described in the art. For the RFI, LUVs were added in 10 μM aliquots and spectra recorded after a 20 min stabilization period. For the RSI, recombinant proteins were added in 0.12 nmol aliquots.

Another assay addresses T1, Hsp70 chaperone (Homo sapiens, UniProt P0DMV8, W90F).
T1 construct: made in house
The experiment in a line: Structural and functional aspects of the Hsp70 chaperone (circular dichroism, luciferase folding, ATP hydrolysis). The assay is classed as biochemical. As to conditions: far- and near-UV circular dichroism. On the technique in general: CD spectra are sensitive to the conformation of chiral molecules.

Assay [4] deals with NPDA cells. The experiment in a line: Volume of the lysosomal compartment in NPDA cells. It is filed as cell-based, Human. An excerpt: (§2) BMP binds ASM with high affinity and stimulates its ability to hydrolyze sphingomyelin to ceramide and phosphorylcholine. […] In order to test whether ASM is responsible for the lysosome stabilizing effect we treated the cells with desipramine, a well characterized pharmacological ASM inhibitor. […] It should be noted that akin to rHsp70, also rASM localized to the lysosomes.
Primary antibodies used included mouse monoclonal antibodies against Hsp70 (2H9; kindly provided by Boris Margulis, Russian Academy of Sciences, St. Petersburg, Russia), glyceraldehyde-3-phosphate dehydrogenase (GAPDH; Biogenesis), BMP (6C4), lysosomal integral membrane protein-1 (H5C6; developed by J. Thomas August and James E. K. Hildreth and obtained from the Developmental Studies Hybridoma Bank developed under the auspices of the NICHD and maintained by The University of Iowa, Department of Biological Sciences, Iowa City, USA). Proteins separated by 10% SDS-PAGE and transferred to a nitrocellulose membrane were detected by using indicated primary antibodies, appropriate peroxidase-conjugated secondary antibodies from Dako, ECL Western blotting reagents (Amersham), and Luminescent Image Reader (LAS-1000Plus, Fujifilm). For immunocytochemistry Alexa […] or Alexa Fluor®-488-conjugated secondary antibodies were used. […] Fluorescence images were taken using a Zeiss Axiovert 100M laser scanning microscope. […]

The subject of another assay is ASM. Briefly: ASM activity in NPDA patient cells. As to conditions: loading the lysosomes of patient cells. The assay is classed as cell-based, Human.
Description: as §2
WT- and Hsp70-MEFs were generated, immortalized and maintained as described in the art. Human NPDA fibroblasts (83/24) originate from a skin biopsy of a patient with hepatosplenomegaly. […] The photo-oxidation-induced loss of the lysosomal pH-gradient and leakage of acridine orange to the cytosol from individual lysosomes was quantified visually as “loss of red dots” in U2-O—S cells and as a decrease in red and an increase in green fluorescence by Zeiss LSM DUO Software in fibroblasts. The total and cytoplasmic (digitonin-extracted) cathepsin activities were measured in digitonin-treated samples using zFR-AFC (Enzyme System Products) probe as described in the art. The tryptophan fluorescence spectra and liposome 90° light scattering were analyzed in a HEPES buffer (20 mM HEPES, 0.1 mM EDTA, pH as indicated) essentially as described in the art. […] Apoptosis-like cell death and lysosomal membrane permeabilization were analyzed essentially as described in the art. […]

Assay [5] relates to NPDA cells. Briefly: Lysosomal stability in NPDA cells. It is filed as cell-based, Human. On the procedure: as §2
Sub-confluent cells incubated with 2 μg/ml acridine orange for 15 min at 37° C. were washed, irradiated and analyzed in Hanks balanced salt solution complemented with 3% fetal calf serum. Cells for single cell imaging were selected from 8 pre-defined areas of each well in transmitted light-mode after which the same cells were immediately visualized and exposed to blue light from USH102 100W mercury arc burner (Ushio electric) installed in a U-ULS100HG housing (Olympus) for 20 sec. Fluorescence microscopy was performed on Olympus IX-70 inverted microscope with a LCPlanF1 ×20 objective with NA=0.40. Loss of lysosomal pH gradient was quantified by counting the loss of intense red staining. A more elaborate method for assaying lysosomal integrity was developed to handle the larger lysosomal compartment of the various fibroblasts used in this study. […] The resulting timelapse movies where subsequently analysed by the integrated Zeiss LSM DUO software.

T1 sequence (P0DMV8 whole entry W90F): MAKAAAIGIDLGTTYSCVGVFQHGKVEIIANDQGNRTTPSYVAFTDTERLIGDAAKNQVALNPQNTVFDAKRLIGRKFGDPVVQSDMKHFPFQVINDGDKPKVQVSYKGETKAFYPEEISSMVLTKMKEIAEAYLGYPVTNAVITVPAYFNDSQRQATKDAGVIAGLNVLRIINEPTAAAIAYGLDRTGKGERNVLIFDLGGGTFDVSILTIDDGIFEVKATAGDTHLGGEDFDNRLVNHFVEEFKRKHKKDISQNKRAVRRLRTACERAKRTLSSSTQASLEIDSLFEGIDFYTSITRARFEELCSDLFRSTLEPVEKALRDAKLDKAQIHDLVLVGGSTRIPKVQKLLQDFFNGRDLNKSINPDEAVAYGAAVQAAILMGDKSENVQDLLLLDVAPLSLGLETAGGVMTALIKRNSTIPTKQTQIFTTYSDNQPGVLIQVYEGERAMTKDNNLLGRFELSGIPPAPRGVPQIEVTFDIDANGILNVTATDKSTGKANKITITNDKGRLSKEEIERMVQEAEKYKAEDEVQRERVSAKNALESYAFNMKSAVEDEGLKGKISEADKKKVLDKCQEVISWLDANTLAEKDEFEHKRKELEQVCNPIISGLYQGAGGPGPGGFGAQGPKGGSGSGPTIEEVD

Turning to “rHsp70-W580F: rHsp70 mutant with tryptophan 580 substituted with phenylalanine”, the “protection of lysosomes against photo-oxidation (lysosomal stabilization)” value (“protection of lysosomes” for short) in the assay with U-2-OS cells was “same protective effect as the wild-type protein”. Further, in assay [1], the “protection of cells against cisplatin-induced lysosomal cell death” value is “same protective effect as the wild-type protein”.

Turning to “Hsc70: recombinant Hsc70, 86% identical to the amino acid sequence of Hsp70”, the “protection of lysosomes” value in the assay on U-2-OS cells is “no lysosomal stabilization”.

On to “Hsp70-2: recombinant Hsp70-2, 84% identical to the amino acid sequence of Hsp70”, for which the “protection of lysosomes” value in the assay with U-2-OS cells is “no lysosomal stabilization”.

“rHsp70-W90F: rHsp70 mutant with tryptophan 90 substituted with phenylalanine”: the “interaction with BMP (BIAcore)” value in assay [2] is “specifically abolished the interaction between rHsp70 and BMP”. The “protection of lysosomes” value with U-2-OS cells is recorded as “completely lost its ability to protect”. In assay [3], the “relative peak fluorescence intensity (tryptophan fluorescence shift)” value is reported as “reduction of the signal”. Also, the “protection of cells against cisplatin-induced lysosomal cell death” value in assay [1] is “completely lost its ability to protect”. Further, the “structural and functional aspects of the chaperone” value with Hsp70 chaperone is “retaining the structural (folding as analyzed by far- and near-UV circular dichroism) and functional (luciferase folding and ATP hydrolysis) aspects”.

B1: rASM: recombinant acid sphingomyelinase (protein, UniProt P17405 47-631, looked up)
Sphingomyelin …: LALSDSRVLWAPAEAHPLSPQGHPARLHRIVPRLRDVFGWGNLTCPICKGLFTAINLGLKKEPNVARVGSVAIKLCNLLKIAPPAVCQSIVHLFEDDMVEVWRRSVLSPSEACGLLLGSTCGHWDIFSSWNISLPTVPKPPPKPPSPPAPGAPVSRILFLTDLHWDHDYLEGTDPDCADPLCCRRGSGLPPASRPGAGYWGEYSKCDLPLRTLESLLSGLGPAGPFDMVYWTGDIPAHDVWHQTRQDQLRALTTVTALVRKFLGPVPVYPAVGNHESTPVNSFPPPFIEGNHSSRWLYEAMAKAWEPWLPAEALRTLRIGGFYALSPYPGLRLISLNMNFCSRENFWLLINSTDPAGQLQWLVGELQAAEDRGDKVHIIGHIPPGHCLKSWSWNYYRIVARYENTLAAQFFGHTHVDEFEVFYDEETLSRPLAVAFLAPSATTYIGLNPGYRVYQIDGNYSGSSHVVLDHETYILNLTQANIPGAIPHWQLLYRARETYGLPNTLPTAWHNLVYRMRGDMQLFQTFWFLYHKGHPPSEPCGTPCRLATLCAQLSARADSPALCRHLMPDGSLPEAQSLWPRPLFC
With B1, the “volume of the enlarged lysosomal compartment in NPDA cells” value in the assay with NPDA cells [4] was “normalize the volume”. Besides, the “ASM activity in NPDA patient cells” value in the assay on ASM is recorded as “increased ASM activity”. For the same molecule, in the assay on NPDA cells [5], the “stabilization of lysosomes in NPDA cells” value is “stabilize the lysosomes”.
